Where two headings read alike, the source gives them in different places.
Key:
OATP1B1 = target: T1, OATP1B1 (Homo sapiens, UniProt Q9Y6L6); assay: OATP1B1-mediated pyranine uptake in A431 cells overexpressing OATP1B1; format: cell-based
T1 construct: expressed in transfected cells; host or cells: A431
T1 sequence (Q9Y6L6 1-691): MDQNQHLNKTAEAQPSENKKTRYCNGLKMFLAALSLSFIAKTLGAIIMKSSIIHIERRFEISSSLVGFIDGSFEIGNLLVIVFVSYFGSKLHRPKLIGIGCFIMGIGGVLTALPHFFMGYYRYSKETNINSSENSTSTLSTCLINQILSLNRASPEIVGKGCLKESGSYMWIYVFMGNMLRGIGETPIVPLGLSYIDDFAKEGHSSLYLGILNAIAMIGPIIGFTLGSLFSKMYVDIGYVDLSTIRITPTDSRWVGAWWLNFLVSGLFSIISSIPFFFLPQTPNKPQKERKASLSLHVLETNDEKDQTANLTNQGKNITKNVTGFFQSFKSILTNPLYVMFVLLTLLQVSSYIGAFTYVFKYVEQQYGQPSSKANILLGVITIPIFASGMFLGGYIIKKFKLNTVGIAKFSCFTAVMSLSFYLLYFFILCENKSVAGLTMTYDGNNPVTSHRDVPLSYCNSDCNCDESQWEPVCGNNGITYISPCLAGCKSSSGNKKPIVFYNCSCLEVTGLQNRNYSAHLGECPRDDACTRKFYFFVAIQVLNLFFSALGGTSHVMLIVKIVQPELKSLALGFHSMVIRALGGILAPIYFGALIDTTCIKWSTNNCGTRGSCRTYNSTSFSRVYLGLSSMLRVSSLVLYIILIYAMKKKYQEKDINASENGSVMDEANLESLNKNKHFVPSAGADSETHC
Description: A431 cells overexpressing human OATPs, 1A2 (BC042452, HsCD00333163), 1B1 (Gene ID: AB026257), 1B3 (BC141525, HsCD00348132) or 2B1 (BC041095.1, HsCD00378878), or their mock transfected controls, were generated as previously described. Cells were cultured in Dulbecco’s Modified Eagle Medium (DMEM; Thermo Fischer Scientific, Waltham, MA, USA) supplemented with 10% fetal bovine serum, 2 mM L-glutamine, 100 units/mL penicillin and 100 µg/mL streptomycin, at 37 °C with 5% CO2.
The interaction between flavonoids and OATPs was investigated in an indirect assay employing the fluorescent dye substrates, pyranine and sulforhodamine 101 [51, 52]. Briefly, A431 cell overexpressing OATPs, 1A2, 1B1, 1B3 or 2B1, or their mock transfected controls, were seeded on 96-well plates in a density of 8x10^4 cells/well in 200 μL DMEM one day prior to the transport measurements. […] The reaction was started by the addition of 50 μL uptake buffer containing pyranine in a final concentration of 10 μM (OATP1B1) or 20 μM (OATP1B3 and OATP2B1), or 0.5 μM sulforhodamine 101 (OATP1A2). Thereafter, cells were incubated at 37°C for 15 min (OATP1B1 and OATP2B1), 10 min (OATP1A2), or 30 min (OATP1B3). The reactions were stopped by removing the supernatants, then the cells were washed three times with ice-cold PBS. Fluorescence (in 200 μL PBS/well) was determined employing an Enspire plate reader (Perkin Elmer, Waltham, MA) ex/em: 403/517 nm (pyranine) or 586/605 nm (sulforhodamine 101). OATP-dependent transport was calculated by extracting fluorescence measured in mock transfected cells. Transport activity was calculated based on the fluorescence signal in the absence (100%) of flavonoids. Experiments were repeated at least in three biological replicates. IC50 values were calculated by Hill1 fit, using the Origin Pro8.6 software ([…]).

CYP2D6 = target: T2, CYP2D6 (Homo sapiens, UniProt P10635); assay: CYP2D6-catalyzed dextromethorphan O-demethylation (CypExpress kit, HPLC); format: biochemical; settings: up to 30 μM flavonoid, substrate 5 µM dextromethorphan
T2 construct: purchased Sigma-Aldrich
Description: Inhibition of CYP2C19 [47], 3A4 [48], and 2D6 [49] by Q and its conjugates was tested based on our previously reported methods, without modifications.
S-mephenytoin and 4-hydroxymephenytoin (CYP2C19 assay), testosterone and 6β-hydroxytestosterone (CYP3A4 assay), as well as dextromethorphan and dextrorphan (CYP2D6 assay) were quantified using the previously described methods, with minor modifications.
In the CYP2D6 assay, samples were driven through a guard column (Security Guard C8, 4.0 × 3.0 mm; Phenomenex, Torrance, CA, USA) linked to an analytical column (Mediterranea Sea8 C8 150 × 4.6 mm; 5 µm; Teknokroma, Barcelona, Spain). The isocratic elution was performed with 1 mL/min flow rate at room temperature, the mobile phase contained acetonitrile and 6.9 mM sodium-acetate buffer (pH 4.0) (31:69 v/v%). Dextromethorphan and dextrorphan were detected at 280 nm.

[1] = 10 μM pyranine, 15 min, A431-OATP1B1 cells, read-out: IC50 for OATP1B1

T2 sequence (P10635 whole entry): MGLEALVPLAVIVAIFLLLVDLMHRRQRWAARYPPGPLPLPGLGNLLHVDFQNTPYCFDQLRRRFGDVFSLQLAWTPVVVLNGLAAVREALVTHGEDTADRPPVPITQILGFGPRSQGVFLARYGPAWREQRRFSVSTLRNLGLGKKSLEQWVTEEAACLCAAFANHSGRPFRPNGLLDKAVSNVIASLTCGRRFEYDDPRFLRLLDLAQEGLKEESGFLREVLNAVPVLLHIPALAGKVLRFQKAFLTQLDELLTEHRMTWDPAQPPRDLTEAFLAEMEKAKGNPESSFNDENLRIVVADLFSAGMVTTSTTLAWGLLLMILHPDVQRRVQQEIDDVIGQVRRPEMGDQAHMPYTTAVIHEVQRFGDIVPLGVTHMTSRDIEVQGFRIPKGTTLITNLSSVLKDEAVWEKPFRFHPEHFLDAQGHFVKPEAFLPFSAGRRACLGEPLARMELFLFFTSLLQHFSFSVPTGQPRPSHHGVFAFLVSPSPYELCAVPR

Row | Structure (SMILES) | concentration causing statistically significant (p < 0.01) inhibition, OATP1B1 (OATP1B1; 10 μM pyranine, 15 min) | IC50 (OATP1B1; [1]) | inhibition of CYP2D6 activity (CYP2D6) | IC50 (OATP1B1)
1 | COc1cc(-c2oc3cc(O)cc(O)c3c(=O)c2OC2OC(C(=O)O)C(O)C(O)C2O)ccc1O (stereo not drawn) [I3G, isorhamnetin-3-glucuronide] | 1.6 µM | 5.63 µM | did not affect | –
2 | COc1cc(-c2oc3cc(O)cc(O)c3c(=O)c2O)ccc1O [IR, isorhamnetin] | 3.1 µM | – | did not affect | 3.12 µM
3 | O=C(O)C1OC(Oc2c(-c3ccc(O)c(O)c3)oc3cc(O)cc(O)c3c2=O)C(O)C(O)C1O (stereo not drawn) [Q3G, quercetin-3-glucuronide] | 1.6 µM | 4.05 µM | did not affect | –
4 | O=c1c(O)c(-c2ccc(O)c(OS(=O)(=O)O)c2)oc2cc(O)cc(O)c12 [Q3′S, quercetin-3′-sulfate] | 0.3 µM | 0.33 µM | did not affect | –
5 | O=c1c(O)c(-c2ccc(O)c(O)c2)oc2cc(O)cc(O)c12 [Q, quercetin] | 1.3 µM | 1.55 µM | did not affect | –
